Laboratory results from US12252524B2, “GIP/GLP1 co-agonist compounds” (Eli Lilly and Company, priority 2018, dated 2025).
Read-outs that look alike come from different tables or passages of the source.

What was measured:
human GLP-1R [1] = biological target: T1, human GLP-1R (Homo sapiens, UniProt P43220); assay: [125I]-GLP-1 binding (SPA), human GLP-1 receptor; set-up: expressed in transfected cells; crude membranes
How it was run: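 Membranes: hypotonic lysis (50 mM Tris HCl, pH 7.5, protease inhibitors), Potter-Elvehjem homogenization, high-speed pellet (35000×g 1 h or 25000×g 30 min, 4° C.). Buffer: 25 mM HEPES pH 7.4, 2.5 mM CaCl2, 1 mM MgCl2. Four-parameter IC50 fit; Ki as geometric mean ± SEM.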

human GLP-1R [2] = biological target: T1, human GLP-1R; assay: GLP-1R CHO cell β-arrestin recruitment assay; format: cell-based; set-up: host or cells: CHO-K1 PathHunter cells, assay-ready frozen; conditions: for hGLP1R B-Arrestin2 % Top: normalized to GLP-1 maximum control
How it was run: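 PathHunter CHO-K1 cells with ProLink-tagged human GLP-1R and enzyme-acceptor-tagged β-arrestin-2 treated with serially diluted peptides in assay buffer containing 0.1% hydrolyzed casein, 90 min at 37 °C.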

human Gcg receptor = biological target: T2, human Gcg receptor (Homo sapiens, UniProt P47871); assay: [125I]-Glucagon binding (SPA), human Gcg receptor
T2 construct: expressed in transfected cells; crude membranes
T2 sequence (P47871 26-477): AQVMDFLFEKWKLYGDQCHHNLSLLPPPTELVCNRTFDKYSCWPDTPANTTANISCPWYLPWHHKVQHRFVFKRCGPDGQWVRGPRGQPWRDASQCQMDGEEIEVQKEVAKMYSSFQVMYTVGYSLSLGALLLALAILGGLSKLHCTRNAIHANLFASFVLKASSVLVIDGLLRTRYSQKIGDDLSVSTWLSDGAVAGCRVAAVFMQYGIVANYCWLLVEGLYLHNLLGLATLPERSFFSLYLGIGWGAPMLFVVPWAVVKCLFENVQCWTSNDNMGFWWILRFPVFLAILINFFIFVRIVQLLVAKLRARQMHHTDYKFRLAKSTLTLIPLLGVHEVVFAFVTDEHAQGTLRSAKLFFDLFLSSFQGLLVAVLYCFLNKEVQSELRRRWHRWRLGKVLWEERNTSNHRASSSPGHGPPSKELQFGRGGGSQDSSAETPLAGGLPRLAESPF
How it was run: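 Crude membranes from cells expressing the receptor, prepared by hypotonic lysis in 50 mM Tris HCl pH 7.5 with protease inhibitors, homogenization and differential centrifugation, were used in a WGA-bead SPA. Binding buffer: 25 mM HEPES pH 7.4, 2.5 mM CaCl2, 1 mM MgCl2, bacitracin, Tween-20.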

human GIP receptor = biological target: T3, human GIP receptor (Homo sapiens, UniProt P48546); assay: [125I]-GIP binding (SPA), human GIP receptor
T3 construct: expressed in transfected cells; crude membranes
T3 sequence (P48546 22-466): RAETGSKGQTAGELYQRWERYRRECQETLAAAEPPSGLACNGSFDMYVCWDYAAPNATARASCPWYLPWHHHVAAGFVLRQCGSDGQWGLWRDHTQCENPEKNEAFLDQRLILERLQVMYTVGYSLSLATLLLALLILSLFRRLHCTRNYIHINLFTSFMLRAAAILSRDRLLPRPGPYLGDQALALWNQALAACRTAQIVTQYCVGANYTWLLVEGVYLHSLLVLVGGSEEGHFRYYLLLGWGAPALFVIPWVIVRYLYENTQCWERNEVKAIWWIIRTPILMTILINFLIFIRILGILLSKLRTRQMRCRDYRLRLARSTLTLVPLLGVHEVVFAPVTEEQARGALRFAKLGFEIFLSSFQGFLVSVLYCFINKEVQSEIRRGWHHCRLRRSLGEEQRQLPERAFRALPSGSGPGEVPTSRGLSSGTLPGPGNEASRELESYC

[3] = biological target: T4, gastric inhibitory peptide receptor (GIPR) (Homo sapiens, UniProt P48546); assay: cAMP pharmacological functional assay in presence of casein, hGIPR; format: cell-based
T4 sequence (P48546 22-466): T3 sequence (P48546 22-466)

[4] = biological target: human GLP-1 receptor (GLP-1R) (Homo sapiens, UniProt P43220); assay: cAMP pharmacological functional assay in presence of casein, hGLP-1R; format: cell-based
human GLP-1 receptor (GLP-1R), sequence (P43220 24-463): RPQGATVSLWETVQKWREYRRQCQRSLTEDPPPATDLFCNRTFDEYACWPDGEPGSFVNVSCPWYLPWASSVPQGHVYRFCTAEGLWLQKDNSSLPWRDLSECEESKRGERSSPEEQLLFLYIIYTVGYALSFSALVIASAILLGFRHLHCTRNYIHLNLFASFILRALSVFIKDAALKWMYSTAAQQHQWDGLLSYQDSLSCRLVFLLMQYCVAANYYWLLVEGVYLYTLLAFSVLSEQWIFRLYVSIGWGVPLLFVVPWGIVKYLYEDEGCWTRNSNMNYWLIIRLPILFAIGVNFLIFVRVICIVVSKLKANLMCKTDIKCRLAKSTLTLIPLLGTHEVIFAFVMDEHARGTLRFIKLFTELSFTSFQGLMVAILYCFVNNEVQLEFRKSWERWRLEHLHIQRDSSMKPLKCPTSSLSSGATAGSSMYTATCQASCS

human GLP-1R [5] = biological target: T1, human GLP-1R; assay: GLP-1R HEK293 cell membrane [35S]GTPγS binding assay; format: biochemical; set-up: expressed in transfected cells; host or cells: HEK293 cells expressing human GLP-1R; membranes
How it was run: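 Membranes from HEK293 cells expressing the receptor incubated with peptide and […] [35S]GTPγS in HEPES pH 7.4 buffer with NaCl, MgCl2, saponin and BSA, 30 min at room temperature. Gαs-bound label captured by anti-Gαs antibody/SPA beads and counted; EC50 from four-parameter logistic fit.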

T1 sequence (P43220 24-463): as above

| SMILES | Ki (human GLP-1R [1]; read-out: hGLP1R Ki, (nM) (SEM, n)) | EC50 (human GLP-1R [2]; CHO-K1 cells, 0.1% w/v hydrolyzed Casein, read-out: hGLP1R B-Arrestin2 Rel EC50) | EC50 (human GLP-1R [2]; CHO-K1 cells, PathHunter β-arrestin-2 recruitment, 0.1% casein, read-out: hGLP1R B-Arrestin2 Rel EC50 uM (SEM, n)) | Ki (human Gcg receptor; read-out: hGLcgR Ki, nM (SEM, n)) | Ki (human GIP receptor; read-out: hGIPR Ki, nM (SEM, n)) | EC50 ([3]; HEK293 cells expressing hGIPR, 0.1% Casein, geometric mean, read-out: hGIPR cAMP Rel EC50 nM (SEM, n)) | EC50 ([4]; HEK293 cells expressing hGLP-1R, 0.1% Casein, geometric mean, read-out: hGLP1R cAMP Rel EC50 nM (SEM, n)) | EC50 (human GLP-1R [5]; HEK293 cell membranes expressing human GLP-1R, [35S]GTPγS binding, read-out: hGLP1R GTPgS Rel EC50 nM (SEM, n)) | Ki (human GLP-1R [1]) | EC50 (human GLP-1R [2]) | hGLP1R B-Arrestin2 % Top (human GLP-1R [2]) | Ki (human Gcg receptor) | Ki (human GIP receptor) | EC50 [3] | EC50 [4] | EC50 (human GLP-1R [5]) |
| --- | --- | --- | --- | --- | --- | --- | --- | --- | --- | --- | --- | --- | --- | --- | --- | --- |
| CC[C@H](C)[C@H](NC(=O)[C@H](CC(C)C)NC(=O)[C@H](Cc1ccc(O)cc1)NC(=O)[C@H](CCC(=O)O)NC(=O)[C@@H](NC(=O)[C@H](Cc1ccccc1)NC(=O)[C@H](C)NC(=O)C(C)(C)NC(=O)[C@H](CCC(N)=O)NC(=O)[C@H](C)NC(=O)[C@H](CCCCNC(=O)COCCOCCNC(=O)COCCOCCNC(=O)CC[C@H](NC(=O)CCCCCCCCCCCCCCCCCCC(=O)O)C(=O)O)NC(=O)[C@H](CCCCN)NC(=O)[C@H](CC(=O)O)NC(=O)[C@H](CC(C)C)NC(=O)[C@](C)(CC(C)C)NC(=O)[C@@H](NC(=O)[C@H](CO)NC(=O)[C@H](Cc1ccc(O)cc1)NC(=O)[C@H](CC(=O)O)NC(=O)[C@H](CO)NC(=O)[C@@H](NC(=O)[C@H](Cc1ccccc1)NC(=O)[C@@H](NC(=O)CNC(=O)[C@H](CCC(=O)O)NC(=O)C(C)(C)NC(=O)[C@H](N)Cc1ccc(O)cc1)[C@@H](C)O)[C@@H](C)O)[C@@H](C)CC)[C@@H](C)CC)C(=O)N[C@@H](CCC(=O)O)C(=O)NCC(=O)NCC(=O)N1CCC[C@H]1C(=O)N[C@@H](CO)C(=O)N[C@@H](CO)C(=O)NCC(=O)N[C@@H](C)C(=O)N1CCC[C@H]1C(=O)N1CCC[C@H]1C(=O)N1CCC[C@H]1C(=O)N[C@@H](CO)C(N)=O [Example 334] | 2.17 nM | > 10.3 µM | > 10.3 µM | 192 nM | 0.0646 nM | 0.0718 nM | 0.303 nM | 0.432 nM | – | – | – | – | – | – | – | – |
| CC[C@H](C)[C@H](NC(=O)[C@H](CC(C)C)NC(=O)[C@H](Cc1ccc(O)cc1)NC(=O)[C@H](CCC(=O)O)NC(=O)[C@@H](NC(=O)[C@H](Cc1ccccc1)NC(=O)[C@H](C)NC(=O)C(C)(C)NC(=O)[C@H](CCC(N)=O)NC(=O)[C@H](C)NC(=O)[C@H](CCCCNC(=O)COCCOCCNC(=O)COCCOCCNC(=O)CC[C@H](NC(=O)CCCCCCCCCCCCCCCCCCC(=O)O)C(=O)O)NC(=O)[C@H](CCCCN)NC(=O)[C@H](CC(=O)O)NC(=O)[C@H](CC(C)C)NC(=O)[C@](C)(CC(C)C)NC(=O)[C@@H](NC(=O)[C@H](CO)NC(=O)[C@H](Cc1ccc(O)cc1)NC(=O)[C@H](CC(=O)O)NC(=O)[C@H](CO)NC(=O)[C@@H](NC(=O)[C@](C)(Cc1ccccc1)NC(=O)[C@@H](NC(=O)CNC(=O)[C@H](CCC(=O)O)NC(=O)C(C)(C)NC(=O)[C@H](N)Cc1ccc(O)cc1)[C@@H](C)O)[C@@H](C)O)[C@@H](C)CC)[C@@H](C)CC)C(=O)N[C@@H](CCC(=O)O)C(=O)NCC(=O)NCC(=O)N1CCC[C@H]1C(=O)N[C@@H](CO)C(=O)N[C@@H](CO)C(=O)NCC(=O)N[C@@H](C)C(=O)N1CCC[C@H]1C(=O)N1CCC[C@H]1C(=O)N1CCC[C@H]1C(=O)N[C@@H](CO)C(N)=O [Example 335] | – | – | – | – | – | – | – | – | 2.54 nM | 0.00531 µM | 73% | 27.1 nM | 0.0444 nM | 0.0477 nM | 0.122 nM | 0.285 nM |
| CC[C@H](C)[C@H](NC(=O)[C@H](CC(C)C)NC(=O)[C@H](Cc1ccc(O)cc1)NC(=O)[C@H](CCC(=O)O)NC(=O)[C@@H](NC(=O)[C@H](Cc1ccccc1)NC(=O)[C@H](C)NC(=O)C(C)(C)NC(=O)[C@H](CCC(N)=O)NC(=O)[C@H](C)NC(=O)[C@H](CCCCNC(=O)COCCOCCNC(=O)COCCOCCNC(=O)CC[C@H](NC(=O)CCCCCCCCCCCCCCCCCCC(=O)O)C(=O)O)NC(=O)[C@H](CCCCN)NC(=O)[C@H](CC(=O)O)NC(=O)[C@H](CC(C)C)NC(=O)[C@](C)(CC(C)C)NC(=O)[C@@H](NC(=O)[C@H](CO)NC(=O)[C@H](Cc1ccc(O)cc1)NC(=O)[C@H](CC(=O)O)NC(=O)[C@H](CO)NC(=O)[C@@H](NC(=O)[C@](C)(Cc1ccccc1F)NC(=O)[C@@H](NC(=O)CNC(=O)[C@H](CCC(=O)O)NC(=O)C(C)(C)NC(=O)[C@H](N)Cc1ccc(O)cc1)[C@@H](C)O)[C@@H](C)O)[C@@H](C)CC)[C@@H](C)CC)C(=O)N[C@@H](CCC(=O)O)C(=O)NCC(=O)NCC(=O)N1CCC[C@H]1C(=O)N[C@@H](CO)C(=O)N[C@@H](CO)C(=O)NCC(=O)N[C@@H](C)C(=O)N1CCC[C@H]1C(=O)N1CCC[C@H]1C(=O)N1CCC[C@H]1C(=O)N[C@@H](CO)C(N)=O [Example 336] | – | – | – | – | – | – | – | – | 2.44 nM | 0.00778 µM | 82.5% | 17.1 nM | 0.0277 nM | 0.0312 nM | 0.0874 nM | 0.377 nM |
